Test results taken from patent US20040038903A1, “Gonadotropin releasing hormone antagonists in gel-forming concentration” (priority 2001, published 2004).

Columns and labels:
[1] = Stability of aqueous solution: gel formation by visual examination; format: physicochemical; settings: room temperature
Experimental: Gel formation was determined by visual examination.

[2] = tested on: Serum LH; test: Efficacy of formulation in vivo: serum LH levels; settings: 25 mg/ml in 5% mannitol, 80 μl/kg s.c., ovariectomised Rhesus monkeys
Experimental: Peptide 1 is dissolved in 5% mannitol (25 mg/ml). Three ovariectomised Rhesus monkeys are treated with this solution (80 μl/kg) by subcutaneous injection. Serum LH levels is measured for the following 101 days.

[3] = tested on: Serum Testosterone; test: Efficacy of formulation in vivo: serum testosterone levels; settings: 5 mg/ml in 5% mannitol, 100 μl/kg s.c., adult male Beagle dogs
Experimental: Peptide 1 is dissolved in 5% mannitol (5 mg/ml). Three adult male Beagle dogs are treated with this solution (100 μl/kg) by subcutaneous injection. Serum Testosterone levels are measured for the following 42 days. When Testosterone levels started to incline again the experiment was terminated.

Ac-DNal-DCpa-DPal-Ser-Aph(L-Hor)-DAph(CONH2)-Leu-Lys(iPr)-Pro-DAla-NH2 [Peptide 1]
Stability (time to gel formation) ([1]; 0.25 mg/ml (calculated as free base) in water): No gel formation after 6 months
Stability (time to gel formation) ([1]; 1.0 mg/ml (calculated as free base) in water): No gel formation after 6 months
Stability (time to gel formation) ([1]; 5.0 mg/ml (calculated as free base) in water): Gel formation after 4 weeks
Stability (time to gel formation) ([1]; 10.0 mg/ml (calculated as free base) in water): Gel formation after 2 weeks
Stability (time to gel formation) ([1]; 30.0 mg/ml (calculated as free base) in water): Gel formation after 48 hours
Stability (time to gel formation) ([1]; 40.0 mg/ml (calculated as free base) in water): Gel formation after 24 hours
Stability (time to gel formation) ([1]; 60.0 mg/ml (calculated as free base) in water): Gel formation after 8 hours
Stability (time to gel formation) ([1]; 80.0 mg/ml (calculated as free base) in water): Rapid gel formation within 60 minutes
Stability (time to gel formation) ([1]; 120.0 mg/ml (calculated as free base) in water): Rapid gel formation within 30 minutes
Serum LH, mean ± se ([2]; Day 1): 10.5 ± 1.5 ng/mL
Serum LH, mean ± se ([2]; Day 2): 11.8 ± 2.6 ng/mL
Serum LH, mean ± se ([2]; Day 7): 6.7 ± 1.2 ng/mL
Serum LH, mean ± se ([2]; Day 14): 5.8 ± 0.9 ng/mL
Serum LH, mean ± se ([2]; Day 21): 6.6 ± 1.0 ng/mL
Serum LH, mean ± se ([2]; Day 28): 9.4 ± 1.3 ng/mL
Serum LH, mean ± se ([2]; Day 35): 8.8 ± 1.0 ng/mL
Serum LH, mean ± se ([2]; Day 42): 11.8 ± 2.3 ng/mL
Serum LH, mean ± se ([2]; Day 72): 29.5 ± 4.3 ng/mL
Serum LH, mean ± se ([2]; Day 101): 48.9 ± 8.3 ng/mL
Serum LH, mean ± se ([2]; Hour 6): 16.2 ± 1.9 ng/mL
Serum LH, mean ± se ([2]; Time 0): 60.1 ± 7.5 ng/mL
Serum Testosterone, mean ± se ([3]; Day 7): <0.2 nmol/L
Serum Testosterone, mean ± se ([3]; Day 14): <0.2 nmol/L
Serum Testosterone, mean ± se ([3]; Day 21): <0.2 nmol/L
Serum Testosterone, mean ± se ([3]; Day 28): <0.2 nmol/L
Serum Testosterone, mean ± se ([3]; Day 42): 3.3 ± 3 nmol/L
Serum Testosterone, mean ± se ([3]; Hour 4): <0.2 nmol/L
Serum Testosterone, mean ± se ([3]; Time 0): 13.8 ± 5.7 nmol/L
